Test results taken from patent US11214803B2, “Modulators of YAP1 expression” (Ionis Pharmaceuticals, Inc., priority 2019, dated 2022).
Strand notation (5' to 3'): a small letter for the sugar, then the base; units joined by * are phosphorothioate-linked, units joined directly phosphodiester-linked; [ ] holds rarer units or linkages, { } end groups; capitals alone tell only the bases. k = constrained ethyl (cEt); [5mC] = 5-methylcytosine; d = 2'-deoxy (DNA)

Test system: Yap1 mRNA
Assay: Antisense inhibition of human Yap1 in A-431 cells by cEt gapmers, single dose (Example 2, RTS4814)
Format: cell-based
Settings: Table 18; A-431 cells, 5,000 cells per well, free uptake, 2,000 nM modified oligonucleotide, approx. 48 hours; RTS4814; normalized to RIBOGREEN; Yap1 mRNA as percent of untreated control
How it was run: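 Free uptake, 2,000 nM, ~48 h, A-431 at 5,000 cells/well. Readout: RT-qPCR (RTS4814), RIBOGREEN-normalized, % UTC. 16-mer 3-10-3 cEt gapmers, full PS backbone, all C as 5-methylcytosine.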

Substance | YAP1 (% UTC)
1074916 (antisense kA*kA*kG*dT*dT*dA*d[5mC]*dA*dT*d[5mC]*d[5mC]*d[5mC]*dG*kA*kG*kT) [Compound 1074916] | 75 % UTC
1074948 (antisense kG*kA*kG*dT*dT*d[5mC]*d[5mC]*dA*dA*dA*dA*d[5mC]*d[5mC]*k[5mC]*kT*kT) [Compound 1074948] | 61 % UTC

Same assay, conditions: Table 19; A-431 cells, 5,000 cells per well, free uptake, 2,000 nM modified oligonucleotide, approx. 48 hours; RTS4814; normalized to RIBOGREEN; Yap1 mRNA as percent of untreated control

Substance | YAP1 (% UTC)
1074917 (antisense k[5mC]*kA*kA*dG*dT*dT*dA*d[5mC]*dA*dT*d[5mC]*d[5mC]*d[5mC]*kG*kA*kG) [Compound 1074917] | 80 % UTC
1074949 (antisense kG*kT*kG*dA*dT*dT*dT*dT*dT*dT*d[5mC]*dT*dG*kA*kG*kT) [Compound 1074949] | 31 % UTC

Same assay, conditions: Table 20; Yap1 mRNA, percent of untreated control; 3-10-3 cEt gapmers targeting SEQ ID NO.: 1 and 2

Substance | YAP1 (% UTC)
1074854 (antisense kA*k[5mC]*kA*dA*dT*dT*dG*dT*dT*dA*dT*dG*dA*kT*kA*kG) [Compound 1074854] | 23 % UTC
1074918 (antisense kT*k[5mC]*kA*dA*dG*dT*dT*dA*d[5mC]*dA*dT*d[5mC]*d[5mC]*k[5mC]*kG*kA) [Compound 1074918] | 60 % UTC
1074950 (antisense kA*kT*k[5mC]*dA*dG*dG*dT*dT*dA*dA*dG*dT*dG*kA*kT*kT) [Compound 1074950] | 120 % UTC

Same assay, conditions: Table 21; Yap1 mRNA, percent of untreated control; 3-10-3 cEt gapmers targeting SEQ ID NO.: 1 and 2

Substance | YAP1 (% UTC)
1074855 (antisense kG*kT*kG*d[5mC]*dA*dT*dT*dA*dA*dA*dG*dA*dA*kT*kT*k[5mC]) [Compound 1074855] | 29 % UTC
1074887 (antisense kT*kA*kG*d[5mC]*d[5mC]*dT*dG*dA*dA*dG*d[5mC]*dA*dA*kG*kT*kT) [Compound 1074887] | 57 % UTC
1074919 (antisense k[5mC]*kT*k[5mC]*dA*dA*dG*dT*dT*dA*d[5mC]*dA*dT*d[5mC]*k[5mC]*k[5mC]*kG) [Compound 1074919] | 48 % UTC
1074951 (antisense k[5mC]*kA*kT*d[5mC]*dA*dG*dG*dT*dT*dA*dA*dG*dT*kG*kA*kT) [Compound 1074951] | 85 % UTC

Same assay, conditions: Table 22; Yap1 mRNA as percent of untreated control; 3-10-3 cEt gapmers; single dose

Substance | YAP1 (% UTC)
1074856 (antisense kT*kT*kT*dG*dA*d[5mC]*dA*dA*dG*dT*dG*dT*dG*k[5mC]*kA*kT) [Compound 1074856] | 15 % UTC
1074888 (antisense kG*kT*kT*dT*dA*dG*d[5mC]*d[5mC]*dT*dG*dA*dA*dG*k[5mC]*kA*kA) [Compound 1074888] | 58 % UTC
1074920 (antisense kA*k[5mC]*kT*d[5mC]*dA*dA*dG*dT*dT*dA*d[5mC]*dA*dT*k[5mC]*k[5mC]*k[5mC]) [Compound 1074920] | 68 % UTC
1074952 (antisense kG*kT*kT*dT*dT*dT*dG*dT*d[5mC]*dA*dT*d[5mC]*dA*kG*kG*kT) [Compound 1074952] | 42 % UTC

Same assay, conditions: Table 23; Yap1 mRNA as percent of untreated control; 3-10-3 cEt gapmers; single dose

Substance | YAP1 (% UTC)
1074857 (antisense kA*k[5mC]*kA*dT*dT*dG*dG*dT*dA*d[5mC]*dT*dA*dT*kA*kT*kA) [Compound 1074857] | 25 % UTC
1074889 (antisense kA*kG*kT*dT*dT*dA*dG*d[5mC]*d[5mC]*dT*dG*dA*dA*kG*k[5mC]*kA) [Compound 1074889] | 42 % UTC
1074921 (antisense k[5mC]*kA*k[5mC]*dT*d[5mC]*dA*dA*dG*dT*dT*dA*d[5mC]*dA*kT*k[5mC]*k[5mC]) [Compound 1074921] | 65 % UTC
1074953 (antisense kG*kG*kG*dT*dT*dT*dT*dT*dG*dT*d[5mC]*dA*dT*k[5mC]*kA*kG) [Compound 1074953] | 32 % UTC

Same assay, conditions: Table 24; Yap1 mRNA as percent of untreated control; 3-10-3 cEt gapmers targeting SEQ ID NO.: 1, and 2

Substance | YAP1 (% UTC)
1074858 (antisense kA*kA*k[5mC]*dA*dT*dT*dG*dG*dT*dA*d[5mC]*dT*dA*kT*kA*kT) [Compound 1074858] | 23 % UTC
1074890 (antisense kG*kA*kA*dG*dT*dT*dT*dA*dG*d[5mC]*d[5mC]*dT*dG*kA*kA*kG) [Compound 1074890] | 58 % UTC
1074922 (antisense k[5mC]*kT*kT*dT*d[5mC]*d[5mC]*dA*d[5mC]*dT*d[5mC]*dA*dA*dG*kT*kT*kA) [Compound 1074922] | 87 % UTC

Same assay, conditions: Table 25; Yap1 mRNA as percent of untreated control; 3-10-3 cEt gapmers targeting SEQ ID NO.: 1, and 2

Substance | YAP1 (% UTC)
1074859 (antisense kG*kT*kA*dA*d[5mC]*dA*dT*dT*dG*dG*dT*dA*d[5mC]*kT*kA*kT) [Compound 1074859] | 16 % UTC
1074891 (antisense kT*kG*kA*dA*dG*dT*dT*dT*dA*dG*d[5mC]*d[5mC]*dT*kG*kA*kA) [Compound 1074891] | 31 % UTC
1074923 (antisense kG*kG*kG*d[5mC]*dG*dG*dT*dA*dA*d[5mC]*dT*d[5mC]*dT*kT*k[5mC]*kT) [Compound 1074923] | 73 % UTC

Same assay, conditions: Table 32; Yap1 mRNA, percent of untreated control; 3-10-3 cEt gapmers targeting SEQ ID NO.: 1, and 2

Substance | YAP1 (% UTC)
1074866 (kA*kA*k[5mC]*dA*dT*dA*dT*dG*dA*dG*d[5mC]*dA*dT*kG*k[5mC]*kT; antisense) [compound 1074866] | 30 % UTC
1074898 (antisense kA*kA*k[5mC]*dT*dT*dT*dT*dG*dG*dG*d[5mC]*dA*dA*kA*kG*kT) [compound 1074898] | 101 % UTC
1074930 (antisense k[5mC]*kT*kA*dT*dA*d[5mC]*dA*dA*d[5mC]*dA*dG*dG*d[5mC]*k[5mC]*kT*kG) [compound 1074930] | 84 % UTC

Same assay, conditions: Table 33; Yap1 mRNA, percent of untreated control; 3-10-3 cEt gapmers targeting SEQ ID NO.: 1, and 2

Substance | YAP1 (% UTC)
1074867 (kT*kA*kA*d[5mC]*dA*dT*dA*dT*dG*dA*dG*d[5mC]*dA*kT*kG*k[5mC]; antisense) [compound 1074867] | 40 % UTC
1074899 (antisense kT*kA*kA*d[5mC]*dT*dT*dT*dT*dG*dG*dG*d[5mC]*dA*kA*kA*kG) [compound 1074899] | 52 % UTC
1074931 (antisense kG*kA*kG*dA*d[5mC]*dT*dA*dT*dA*d[5mC]*dA*dA*d[5mC]*kA*kG*kG) [compound 1074931] | 35 % UTC

Same assay, conditions: Yap1 mRNA as percent of untreated control; A-431 cells; 3-10-3 cEt gapmers targeting SEQ ID NO.: 1, and 2; Table 30

Substance | YAP1 (% UTC)
1074864 (k[5mC]*kA*kT*dA*dT*dG*dA*dG*d[5mC]*dA*dT*dG*d[5mC]*kT*k[5mC]*kT; antisense) [compound 1074864] | 47 % UTC
1074896 (antisense kG*k[5mC]*kA*dA*dA*dG*dT*dT*d[5mC]*d[5mC]*dT*dA*dT*kG*k[5mC]*kT) [compound 1074896] | 99 % UTC
1074928 (antisense kA*kT*kA*d[5mC]*dA*dA*d[5mC]*dA*dG*dG*d[5mC]*d[5mC]*dT*kG*k[5mC]*kA) [compound 1074928] | 83 % UTC

Same assay, conditions: Yap1 mRNA as percent of untreated control; A-431 cells; 3-10-3 cEt gapmers targeting SEQ ID NO.: 1, and 2; Table 31

Substance | YAP1 (% UTC)
1074865 (kA*k[5mC]*kA*dT*dA*dT*dG*dA*dG*d[5mC]*dA*dT*dG*k[5mC]*kT*k[5mC]; antisense) [compound 1074865] | 46 % UTC
1074897 (antisense kG*kG*k[5mC]*dA*dA*dA*dG*dT*dT*d[5mC]*d[5mC]*dT*dA*kT*kG*k[5mC]) [compound 1074897] | 76 % UTC
1074929 (antisense kT*kA*kT*dA*d[5mC]*dA*dA*d[5mC]*dA*dG*dG*d[5mC]*d[5mC]*kT*kG*k[5mC]) [compound 1074929] | 79 % UTC
